# Reference: patent US12648913B2, “Polymeric nanocarriers and methods of use thereof” (Vanderbilt University, priority 2019, dated 2026)
# Tested on: MDA-MB-231 cells
# Assay: MTS proliferation assay on rigid or compliant substrates
# Format: cell-based, human
# From the text: This motivated the hypothesis that blocking Gli-activity in metastatic breast tumors could obstruct their potential to establish in bone and adopt a bone-destructive phenotype. […] It is important to note the large variability in tumor burden inherent to the intracardiac model as evidenced by the large standard error. Even with this variability in consideration, there is significant tumor burden in the 10% Aln-GANT58 treated mice despite maintenance of high bone area (FIG. 18C). Based on the present inventors' previous studies reporting that both rigid mineralized bone matrix and TGF-β drive Gli2 expression in bone-metastatic cancer cell lines, it was hypothesized that GANT58-BTNP treatment may have a spatially heterogeneous effect on tumor cells that mirrors the spatial variation in Gli2 expression. Therefore, the effect of GANT58-BTNP treatment on tumor cell proliferation was measured by measuring Ki67 via IHC (FIG. 14F). […]
# Proliferation Assay. […] Cell proliferation was determined by MTS assay using the CellTiter 96 Aqueous Non-Radioactive Cell Proliferation Assay kit (Promega) per the manufacturer's instructions. Absorbance values were measured at OD 490 nm on a plate reader and normalized to no cell controls in the respective GelMA coated and uncoated wells.
structure (smiles),measurement,setting,value
c1cc(-c2sc(-c3ccncc3)c(-c3ccncc3)c2-c2ccncc2)ccn1 [GANT58],proliferation of cells on compliant substrates,"40 μM GANT58, GelMA gels",not on compliant substrates
same,proliferation of cells on rigid substrates,"40 μM GANT58, tissue culture plastic",significantly reduced
